What is called IC50 is the concentration at which inhibition is half-maximal. Read a high IC50 as lower potency.

The target of the assay is T1, NTCP (Homo sapiens, UniProt Q14973).
T1 sequence (Q14973 1-349): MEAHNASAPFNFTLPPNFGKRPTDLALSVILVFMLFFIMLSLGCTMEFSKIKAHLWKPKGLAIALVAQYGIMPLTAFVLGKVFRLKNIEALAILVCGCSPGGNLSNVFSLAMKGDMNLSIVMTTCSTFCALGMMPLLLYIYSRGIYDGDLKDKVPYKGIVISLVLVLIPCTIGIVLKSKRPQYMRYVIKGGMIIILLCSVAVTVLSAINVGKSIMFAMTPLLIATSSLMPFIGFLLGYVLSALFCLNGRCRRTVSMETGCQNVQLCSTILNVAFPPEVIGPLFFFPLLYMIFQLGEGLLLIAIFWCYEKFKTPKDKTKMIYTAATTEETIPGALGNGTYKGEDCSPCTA
Description: [3H]-TCA uptake assay (NTCP inhibition). The assay is classed as cell-based. In outline:
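Read-out is liquid scintillation counting of Triton X-100 lysates after 15 min, 37° C uptake of 1 μM [3H]-taurocholate in Na+ Ringer's buffer (145 mM Na). Beforehand, PTH and HepG2-NTCP cells had 24 h in PMM for NTCP induction and 2 h of compound or DMSO treatment.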

The mark [1] stands for this setting: given as a range, assay not given.

Under setting [1], `CCC1NC(=O)C(C2OC(Sc3cccc(OC(C)C)c3)CC2C)N(C)C(=O)C(C(C)C)N(C)C(=O)C(CC(C)C)N(C)C(=O)C(CC(C)C)N(C)C(=O)C(C)NC(=O)C(C)NC(=O)C(CC(C)C)N(C)C(=O)C(C(C)C)NC(=O)C(CC(C)C)N(C)C(=O)CN(C)C1=O` [Compound 30A, [2-((2R,3R)-5-(3-isopropoxyphenylthio)-3-methyltetrahydrofuran-2-yl)-2-(methylamino)acetic acid]^1-cyclosporin] gave an IC50 of 0.001 to 1 µM.

Consider `CCC1NC(=O)C(C2OC(OC(C)c3ccccc3)CC2C)N(C)C(=O)C(C(C)C)N(C)C(=O)C(CC(C)C)N(C)C(=O)C(CC(C)C)N(C)C(=O)C(C)NC(=O)C(C)NC(=O)C(CC(C)C)N(C)C(=O)C(C(C)C)NC(=O)C(CC(C)C)N(C)C(=O)CN(C)C1=O` (single isomer, unassigned) [Compound 79A], for which the IC50 under setting [1] lay within 0.001 to 1 µM.

Consider `CCC1NC(=O)C(C2OC(Oc3c(OC)cccc3OC)CC2C)N(C)C(=O)C(C(C)C)N(C)C(=O)C(CC(C)C)N(C)C(=O)C(CC(C)C)N(C)C(=O)C(C)NC(=O)C(C)NC(=O)C(CC(C)C)N(C)C(=O)C(C(C)C)NC(=O)C(CC(C)C)N(C)C(=O)CN(C)C1=O` (stereo not drawn) [Compound 36A-o], for which, where the note is “IC50, given as a range, marked * (asterisk not explained)”, the IC50 lay in the range of 1 to 100 µM.

The values above are taken from patent US10961231B2, “NTCP inhibitors” (National Institute of Biological Sciences, Beijing, priority 2018, dated 2021).
